Data reported in patent US10202361B2, “Pyridazinones as herbicides” (E I DU PONT DE NEMOURS AND COMPANY, priority 2014, dated 2019).

What was measured:
Assay type in all cases: in vivo
[1] = system: crabgrass, large (large crabgrass Digitaria sanguinalis); assay: Test E pre-/postemergence greenhouse herbicide test; details: Preemergence, scale 0 to 100
[2] = system: goosegrass (Eleusine indica); assay: as above; details: Preemergence, scale 0 to 100
[3] = system: surinam grass (Brachiaria decumbens); assay: as above; details: Preemergence, scale 0 to 100
[4] = system: cocklebur (common cocklebur, Xanthium strumarium); assay: as above; details: Preemergence, scale 0 to 100
[5] = system: poinsettia, wild (wild poinsettia, Euphorbia heterophylla); assay: as above; details: scale 0 to 100
[6] = system: panicum, fall (fall panicum, Panicum dichotomiflorum); assay: as above; details: scale 0 to 100
How it was run: (§1)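 Formulated test chemical (solvent mixture with surfactant) is applied preemergence to seeded silt loam and postemergence to plants at 1- to 4-leaf stage grown in peat-based medium. Greenhouse holding 14 to 21 d; response scored visually, 0 no effect to 100 complete control.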

[7] = system: velvetleaf (Abutilon theophrasti); assay: as above; details: Preemergence, scale 0 to 100
How it was run: as §1

[8] = system: foxtail, green (green foxtail, Setaria viridis); assay: as above; details: Preemergence, scale 0 to 100
How it was run: as §1

[9] = system: smartweed (ladysthumb smartweed, Polygonum persicaria); assay: as above; details: scale 0 to 100
How it was run: as §1

corn (Zea mays) = assay: as above; details: scale 0 to 100
How it was run: as §1

[10] = system: foxtail, giant (giant foxtail, Setaria faberii); assay: as above; details: Preemergence, scale 0 to 100
How it was run: as §1

[11] = system: waterhemp_RES1 (ALS & Triazine resistant common waterhemp, Amaranthus rudis); assay: Test E postemergence greenhouse herbicide test; details: scale 0 to 100
Procedure: (§2) At the same time, plants from these crop and weed species and also waterhemp_RES1, (ALS & Triazine resistant common waterhemp, Amaranthus rudis), and waterhemp_RES2, (ALS & HPPD resistant common waterhemp, Amaranthus rudis) were planted in pots containing Redi-Earth® planting medium (Scotts Company, 14111 Scottslawn Road, Marysville, Ohio 43041) comprising spaghnum peat moss, vermiculite, wetting agent and starter nutrients were treated with postemergence applications of test chemicals formulated in the same manner. Plants ranged in height from 2 to 18 cm for postemergence treatments (1- to 4-leaf stage). Treated plants and controls were maintained in a greenhouse for 14 to 21 d, after which time all species were compared to controls and visually evaluated. Plant response ratings, summarized in Table E, are based on a scale of 0 to 100 where 0 is no effect and 100 is complete control. A dash (-) response means no test result.

[12] = system: waterhemp_RES2 (ALS & HPPD resistant common waterhemp, Amaranthus rudis); assay: Test E postemergence greenhouse herbicide test; details: scale 0 to 100
Procedure: as §2

SMILES: COc1cc(=O)n(-c2ccc(F)cc2)nc1Cc1ccnc(C(F)(F)F)c1 [Compound 17, 2-(4-fluorophenyl)-5-methoxy-6-[[2-(trifluoromethyl)-4-pyridinyl]methyl]-3 (2H)-pyridazinone]
- Plant response rating: Crabgrass, Large ([1]; 16 g ai/ha): 35
- Plant response rating: Crabgrass, Large ([1]; 31 g ai/ha): 100
- Plant response rating: Crabgrass, Large ([1]; 62 g ai/ha): 100
- Plant response rating: Crabgrass, Large ([1]; 125 g ai/ha): 100
- Plant response rating: Crabgrass, Large ([1]; 250 g ai/ha): 100
- Plant response rating: Goosegrass ([2]; 16 g ai/ha): 0
- Plant response rating: Goosegrass ([2]; 31 g ai/ha): 20
- Plant response rating: Goosegrass ([2]; 62 g ai/ha): 60
- Plant response rating: Goosegrass ([2]; 125 g ai/ha): 95
- Plant response rating: Goosegrass ([2]; 250 g ai/ha): 98
- Plant response rating: Surinam Grass ([3]; 16 g ai/ha): 0
- Plant response rating: Surinam Grass ([3]; 31 g ai/ha): 20
- Plant response rating: Surinam Grass ([3]; 62 g ai/ha): 65
- Plant response rating: Surinam Grass ([3]; 125 g ai/ha): 75
- Plant response rating: Surinam Grass ([3]; 250 g ai/ha): 75
- Plant response rating: Cocklebur ([4]; 16 g ai/ha): 0
- Plant response rating: Cocklebur ([4]; 62 g ai/ha): 0
- Plant response rating: Poinsettia, Wild ([5]; Postemergence, 16 g ai/ha): 20
- Plant response rating: Poinsettia, Wild ([5]; Postemergence, 31 g ai/ha): 30
- Plant response rating: Poinsettia, Wild ([5]; Postemergence, 62 g ai/ha): 40
- Plant response rating: Poinsettia, Wild ([5]; Postemergence, 125 g ai/ha): 40
- Plant response rating: Poinsettia, Wild ([5]; Postemergence, 250 g ai/ha): 50
- Plant response rating: Poinsettia, Wild ([5]; Preemergence, 16 g ai/ha): 20
- Plant response rating: Poinsettia, Wild ([5]; Preemergence, 31 g ai/ha): 20
- Plant response rating: Poinsettia, Wild ([5]; Preemergence, 62 g ai/ha): 30
- Plant response rating: Poinsettia, Wild ([5]; Preemergence, 125 g ai/ha): 40
- Plant response rating: Poinsettia, Wild ([5]; Preemergence, 250 g ai/ha): 100
- Plant response rating: Panicum, Fall ([6]; Postemergence, 16 g ai/ha): 15
- Plant response rating: Panicum, Fall ([6]; Postemergence, 31 g ai/ha): 20
- Plant response rating: Panicum, Fall ([6]; Postemergence, 62 g ai/ha): 20
- Plant response rating: Panicum, Fall ([6]; Postemergence, 125 g ai/ha): 30
- Plant response rating: Panicum, Fall ([6]; Postemergence, 250 g ai/ha): 50
- Plant response rating: Panicum, Fall ([6]; Preemergence, 16 g ai/ha): 80
- Plant response rating: Panicum, Fall ([6]; Preemergence, 31 g ai/ha): 90
- Plant response rating: Panicum, Fall ([6]; Preemergence, 62 g ai/ha): 98
- Plant response rating: Panicum, Fall ([6]; Preemergence, 125 g ai/ha): 100
- Plant response rating: Panicum, Fall ([6]; Preemergence, 250 g ai/ha): 100
- Plant response rating: Velvetleaf ([7]; 16 g ai/ha): 0
- Plant response rating: Velvetleaf ([7]; 31 g ai/ha): 0
- Plant response rating: Velvetleaf ([7]; 62 g ai/ha): 20
- Plant response rating: Velvetleaf ([7]; 125 g ai/ha): 25
- Plant response rating: Velvetleaf ([7]; 250 g ai/ha): 70
- Plant response rating: Foxtail, Green ([8]; 16 g ai/ha): 0
- Plant response rating: Foxtail, Green ([8]; 31 g ai/ha): 50
- Plant response rating: Foxtail, Green ([8]; 62 g ai/ha): 75
- Plant response rating: Foxtail, Green ([8]; 125 g ai/ha): 75
- Plant response rating: Foxtail, Green ([8]; 250 g ai/ha): 100
- Plant response rating: Smartweed ([9]; Postemergence, 16 g ai/ha): 10
- Plant response rating: Smartweed ([9]; Postemergence, 31 g ai/ha): 15
- Plant response rating: Smartweed ([9]; Postemergence, 62 g ai/ha): 30
- Plant response rating: Smartweed ([9]; Postemergence, 125 g ai/ha): 40
- Plant response rating: Smartweed ([9]; Postemergence, 250 g ai/ha): 60
- Plant response rating: Smartweed ([9]; Preemergence, 16 g ai/ha): 0
- Plant response rating: Smartweed ([9]; Preemergence, 31 g ai/ha): 0
- Plant response rating: Smartweed ([9]; Preemergence, 62 g ai/ha): 0
- Plant response rating: Smartweed ([9]; Preemergence, 125 g ai/ha): 20
- Plant response rating: Smartweed ([9]; Preemergence, 250 g ai/ha): 75
- Plant response rating: Corn (corn (Zea mays); Postemergence, 16 g ai/ha): 0
- Plant response rating: Corn (corn (Zea mays); Postemergence, 31 g ai/ha): 10
- Plant response rating: Corn (corn (Zea mays); Postemergence, 62 g ai/ha): 10
- Plant response rating: Corn (corn (Zea mays); Postemergence, 125 g ai/ha): 35
- Plant response rating: Corn (corn (Zea mays); Postemergence, 250 g ai/ha): 65
- Plant response rating: Corn (corn (Zea mays); Preemergence, 16 g ai/ha): 0
- Plant response rating: Corn (corn (Zea mays); Preemergence, 31 g ai/ha): 0
- Plant response rating: Corn (corn (Zea mays); Preemergence, 62 g ai/ha): 30
- Plant response rating: Corn (corn (Zea mays); Preemergence, 125 g ai/ha): 65
- Plant response rating: Corn (corn (Zea mays); Preemergence, 250 g ai/ha): 80
- Plant response rating: Foxtail, Giant ([10]; 16 g ai/ha): 0
- Plant response rating: Foxtail, Giant ([10]; 31 g ai/ha): 40
- Plant response rating: Foxtail, Giant ([10]; 62 g ai/ha): 65
- Plant response rating: Foxtail, Giant ([10]; 125 g ai/ha): 100
- Plant response rating: Foxtail, Giant ([10]; 250 g ai/ha): 100
- Plant response rating: Waterhemp_RES1 ([11]; 16 g ai/ha): 50
- Plant response rating: Waterhemp_RES1 ([11]; 31 g ai/ha): 60
- Plant response rating: Waterhemp_RES1 ([11]; 62 g ai/ha): 60
- Plant response rating: Waterhemp_RES1 ([11]; 125 g ai/ha): 85
- Plant response rating: Waterhemp_RES1 ([11]; 250 g ai/ha): 90
- Plant response rating: Waterhemp_RES2 ([12]; 16 g ai/ha): 60
- Plant response rating: Waterhemp_RES2 ([12]; 31 g ai/ha): 80
- Plant response rating: Waterhemp_RES2 ([12]; 62 g ai/ha): 80
- Plant response rating: Waterhemp_RES2 ([12]; 125 g ai/ha): 90
- Plant response rating: Waterhemp_RES2 ([12]; 250 g ai/ha): 95

SMILES: CCOc1cc(=O)n(-c2ccc(F)cc2)nc1Cc1ccnc(C(F)(F)F)c1 [Compound 25, 5-ethoxy-2-(4-fluorophenyl)-6-[[2-(trifluoromethyl)-4-pyridinyl]methyl]-3 (2H)-pyridazinone]
- Plant response rating: Crabgrass, Large ([1]; 8 g ai/ha): 0
- Plant response rating: Crabgrass, Large ([1]; 16 g ai/ha): 0
- Plant response rating: Crabgrass, Large ([1]; 31 g ai/ha): 75
- Plant response rating: Crabgrass, Large ([1]; 62 g ai/ha): 100
- Plant response rating: Crabgrass, Large ([1]; 125 g ai/ha): 100
- Plant response rating: Goosegrass ([2]; 8 g ai/ha): 5
- Plant response rating: Goosegrass ([2]; 16 g ai/ha): 5
- Plant response rating: Goosegrass ([2]; 31 g ai/ha): 15
- Plant response rating: Goosegrass ([2]; 62 g ai/ha): 75
- Plant response rating: Goosegrass ([2]; 125 g ai/ha): 98
- Plant response rating: Surinam Grass ([3]; 8 g ai/ha): 5
- Plant response rating: Surinam Grass ([3]; 16 g ai/ha): 10
- Plant response rating: Surinam Grass ([3]; 31 g ai/ha): 80
- Plant response rating: Surinam Grass ([3]; 62 g ai/ha): 100
- Plant response rating: Surinam Grass ([3]; 125 g ai/ha): 100
- Plant response rating: Cocklebur ([4]; 8 g ai/ha): 0
- Plant response rating: Cocklebur ([4]; 16 g ai/ha): 50
- Plant response rating: Cocklebur ([4]; 31 g ai/ha): 20
- Plant response rating: Cocklebur ([4]; 62 g ai/ha): 65
- Plant response rating: Cocklebur ([4]; 125 g ai/ha): 65
- Plant response rating: Poinsettia, Wild ([5]; Preemergence, 8 g ai/ha): 0
- Plant response rating: Poinsettia, Wild ([5]; Preemergence, 16 g ai/ha): 0
- Plant response rating: Poinsettia, Wild ([5]; Preemergence, 31 g ai/ha): 0
- Plant response rating: Poinsettia, Wild ([5]; Preemergence, 62 g ai/ha): 50
- Plant response rating: Poinsettia, Wild ([5]; Preemergence, 125 g ai/ha): 10
- Plant response rating: Panicum, Fall ([6]; Preemergence, 8 g ai/ha): 0
- Plant response rating: Panicum, Fall ([6]; Preemergence, 16 g ai/ha): 35
- Plant response rating: Panicum, Fall ([6]; Preemergence, 31 g ai/ha): 50
- Plant response rating: Panicum, Fall ([6]; Preemergence, 62 g ai/ha): 100
- Plant response rating: Panicum, Fall ([6]; Preemergence, 125 g ai/ha): 100
- Plant response rating: Velvetleaf ([7]; 8 g ai/ha): 0
- Plant response rating: Velvetleaf ([7]; 16 g ai/ha): 20
- Plant response rating: Velvetleaf ([7]; 31 g ai/ha): 0
- Plant response rating: Velvetleaf ([7]; 62 g ai/ha): 30
- Plant response rating: Velvetleaf ([7]; 125 g ai/ha): 80
- Plant response rating: Foxtail, Green ([8]; 8 g ai/ha): 0
- Plant response rating: Foxtail, Green ([8]; 16 g ai/ha): 5
- Plant response rating: Foxtail, Green ([8]; 31 g ai/ha): 35
- Plant response rating: Foxtail, Green ([8]; 62 g ai/ha): 90
- Plant response rating: Foxtail, Green ([8]; 125 g ai/ha): 100
- Plant response rating: Corn (corn (Zea mays); Preemergence, 8 g ai/ha): 0
- Plant response rating: Corn (corn (Zea mays); Preemergence, 16 g ai/ha): 10
- Plant response rating: Corn (corn (Zea mays); Preemergence, 31 g ai/ha): 25
- Plant response rating: Corn (corn (Zea mays); Preemergence, 62 g ai/ha): 40
- Plant response rating: Corn (corn (Zea mays); Preemergence, 125 g ai/ha): 35
- Plant response rating: Foxtail, Giant ([10]; 8 g ai/ha): 0
- Plant response rating: Foxtail, Giant ([10]; 16 g ai/ha): 0
- Plant response rating: Foxtail, Giant ([10]; 31 g ai/ha): 0
- Plant response rating: Foxtail, Giant ([10]; 62 g ai/ha): 5
- Plant response rating: Foxtail, Giant ([10]; 125 g ai/ha): 20
